Measurements as given in patent US11174253B2, “Compound and pharmaceutical composition containing the same” (ALPHALA CO., LTD., priority 2017, dated 2021).

Each molecule was assayed on hepatocellular carcinoma cell line Hep3B (assay: Growth inhibition of Hep3B cells, 48 hr treatment, Hoechst 33342 nucleus count (GE InCell 2200)). Details: Homo sapiens, Table 1, ratio of number of tumor cells treated with 10 μM compound to non-treated cells.
Assay type: cell-based
Procedure, shortened: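 Compound exposure lasted 48 hr at 37° C, 5% CO2. Surviving nuclei were counted after Hoechst 33342 staining, and survival was expressed as the treated/non-treated cell number ratio, including the ratio at 10 μM compound.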
CCCCOc1ccc(-c2nnc(NC(=O)Cc3ccc4nc(N)sc4c3)s2)cc1 [Compound 1-21, 2-(2-aminobenzo[d]thiazol-6-yl)-N-(5-(4-butoxyphenyl)-1,3,4-thiadiazol-2-yl)acetamide] showed a viability at 10 µM of 81%.
In the case of Nc1nc2ccc(CC(=O)Nc3nnc(-c4ccc(Br)c([N+](=O)[O-])c4)s3)cc2s1 [Compound 1-13, 2-(2-aminobenzo[d]thiazol-6-yl)-N-(5-(4-bromo-3-nitrophenyl)-1,3,4-thiadiazol-2-yl)acetamide], the viability at 10 µM is reported as 60%.
Work on CCOc1ccc(-c2nnc(N(C)C(=O)Cc3ccc4nc(N)sc4c3)s2)c(OCC)c1 [Compound 1-36, 2-(2-aminobenzo[d]thiazol-6-yl)-N-(5-(2,4-diethoxyphenyl)-1,3,4-thiadiazol-2-yl)-N-methylacetamide] yielded a viability at 10 µM of 53%.

Same assay, conditions: Homo sapiens, Table 3, ratio of number of tumor cells treated with 10 μM compound to non-treated cells
CCOc1ccc(-c2nc(NC(=O)Cc3ccc4nc(N)sc4c3)sc2Cc2ccccc2)cc1 [Compound 3-14, 2-(2-aminobenzo[d]thiazol-6-yl)-N-(5-benzyl-4-(4-ethoxyphenyl)thiazol-2-yl)acetamide] showed a viability at 10 µM of 76%.
Molecule COc1cccc(-c2nc(NC(=O)Cc3ccc4nc(N)sc4c3)sc2Br)c1 [Compound 3-8, 2-(2-aminobenzo[d]thiazol-6-yl)-N-(5-bromo-4-(3-methoxyphenyl)thiazol-2-yl)acetamide] has a viability at 10 µM of 84%.

Same assay, conditions: Homo sapiens, Table 5, ratio of number of tumor cells treated with 10 μM compound to non-treated cells
In the case of CCCCOc1ccc(-c2nc(NC(=O)c3ccc([N+](=O)[O-])s3)sc2Oc2cc(C)cc(C)c2)cc1 [Compound 5-106, N-(4-(4-butoxyphenyl)-5-(3,5-dimethylphenoxy)thiazol-2-yl)-5-nitrothiophene-2-carboxamide], the viability at 10 µM is reported as 29%.
Work on CC(C)(C)c1ccc(Oc2sc(NC(=O)c3ccc([N+](=O)[O-])s3)nc2-c2ccc(F)cc2)cc1 [Compound 5-64, N-(5-(4-(tert-butyl)phenoxy)-4-(4-fluorophenyl)thiazol-2-yl)-5-nitrothiophene-2-carboxamide] yielded a viability at 10 µM of 54%.
CCCOc1ccc(-c2nc(NC(=O)c3ccc([N+](=O)[O-])s3)sc2Oc2ccc(Cl)c(Cl)c2)cc1 [Compound 5-44, N-(5-(3,4-dichlorophenoxy)-4-(4-propoxyphenyl)thiazol-2-yl)-5-nitrothiophene-2-carboxamide] showed a viability at 10 µM of 41%.
CCOc1cc(OCC)cc(-c2nc(NC(=O)c3ccc([N+](=O)[O-])s3)sc2Oc2ccccc2)c1 [Compound 5-36, N-(4-(3,5-diethoxyphenyl)-5-phenoxythiazol-2-yl)-5-nitrothiophene-2-carboxamide] was tested, and the viability at 10 µM was 39%.
Molecule COc1cccc(-c2nc(NC(=O)c3ccc([N+](=O)[O-])s3)sc2Oc2ccccc2)c1 [Compound 5-4, N-(4-(3-methoxyphenyl)-5-phenoxythiazol-2-yl)-5-nitrothiophene-2-carboxamide] has a viability at 10 µM of 63%.
With CCCCOc1ccc(-c2nc(NC(=O)c3ccc([N+](=O)[O-])s3)sc2Oc2ccc(Br)cc2)cc1 [Compound 5-86, N-(5-(4-bromophenoxy)-4-(4-butoxyphenyl)thiazol-2-yl)-5-nitrothiophene-2-carboxamide] the viability at 10 µM was 24%.
CCCCOc1ccc(-c2nc(NC(=O)c3ccc([N+](=O)[O-])s3)sc2Oc2cc(C)c(Br)c(C)c2)cc1 [Compound 5-87, N-(5-(4-bromo-3,5-dimethylphenoxy)-4-(4-butoxyphenyl)thiazol-2-yl)-5-nitrothiophene-2-carboxamide] was tested, and the viability at 10 µM was 36%.
With CCCc1ccc(-c2nc(NC(=O)c3ccc([N+](=O)[O-])s3)sc2Oc2ccccc2F)cc1 [Compound 5-78, N-(5-(2-fluorophenoxy)-4-(4-propylphenyl)thiazol-2-yl)-5-nitrothiophene-2-carboxamide] the viability at 10 µM was 33%.
With CCOc1ccc(-c2nc(NC(=O)c3ccc([N+](=O)[O-])s3)sc2Oc2ccc(F)cc2)cc1 [Compound 5-55, N-(4-(4-ethoxyphenyl)-5-(4-fluorophenoxy)thiazol-2-yl)-5-nitrothiophene-2-carboxamide] the viability at 10 µM was 47%.
CCC(C)(C)c1ccc(Oc2sc(NC(=O)c3ccc([N+](=O)[O-])s3)nc2-c2ccc(C(C)(C)C)cc2)cc1 [Compound 5-101, N-(4-(4-(tert-butyl)phenyl)-5-(4-(tert-pentyl)phenoxy)thiazol-2-yl)-5-nitrothiophene-2-carboxamide] gave a viability at 10 µM of 48%.
O=C(Nc1nc(-c2ccc([N+](=O)[O-])cc2)c(Oc2ccccc2)s1)c1ccc([N+](=O)[O-])s1 [Compound 5-60, 5-nitro-N-(4-(4-nitrophenyl)-5-phenoxythiazol-2-yl)thiophene-2-carboxamide] was tested, and the viability at 10 µM was 38%.
In the case of CCCCOc1ccc(-c2nc(NC(=O)c3ccc([N+](=O)[O-])s3)sc2Oc2ccc(F)cc2)cc1 [Compound 5-73, N-(4-(4-butoxyphenyl)-5-(4-fluorophenoxy)thiazol-2-yl)-5-nitrothiophene-2-carboxamide], the viability at 10 µM is reported as 49%.
CCOc1ccc(-c2nc(NC(=O)c3ccc([N+](=O)[O-])s3)sc2Oc2ccccc2)c(F)c1 [Compound 5-53, N-(4-(4-ethoxy-2-fluorophenyl)-5-phenoxythiazol-2-yl)-5-nitrothiophene-2-carboxamide] showed a viability at 10 µM of 41%.
Work on CCCOc1ccc(-c2nc(NC(=O)c3ccc([N+](=O)[O-])s3)sc2Oc2ccccc2OCC)cc1 [Compound 5-21, N-(5-(2-ethoxyphenoxy)-4-(4-propoxyphenyl)thiazol-2-yl)-5-nitrothiophene-2-carboxamide] yielded a viability at 10 µM of 28%.
COCCOc1ccc(-c2nc(NC(=O)c3ccc([N+](=O)[O-])s3)sc2Oc2ccccc2)cc1 [Compound 5-16, N-(4-(4-(2-methoxyethoxy)phenyl)-5-phenoxythiazol-2-yl)-5-nitrothiophene-2-carboxamide] was tested, and the viability at 10 µM was 59%.

Same assay, conditions: Homo sapiens, Table 6, ratio of number of tumor cells treated with 10 μM compound to non-treated cells
O=C(Nc1nc(-c2ccccc2[N+](=O)[O-])cs1)c1ccc([N+](=O)[O-])s1 [Compound 6-11, 5-nitro-N-(4-(2-nitrophenyl)thiazol-2-yl)thiophene-2-carboxamide] was tested, and the viability at 10 µM was 62%.
In the case of O=C(Nc1nc(-c2ccc(Br)cc2)c(Br)s1)c1ccc([N+](=O)[O-])s1 [Compound 6-10, N-(5-bromo-4-(4-bromophenyl)thiazol-2-yl)-5-nitrothiophene-2-carboxamide], the viability at 10 µM is reported as 50%.
For CCOc1ccc(-c2nc(NC(=O)c3ccc([N+](=O)[O-])o3)sc2Cc2ccccc2)cc1 [Compound 6-33, N-(5-benzyl-4-(4-ethoxyphenyl)thiazol-2-yl)-5-nitrofuran-2-carboxamide], the viability at 10 µM was 27%.
CCCOc1ccc(-c2nc(NC(=O)c3ccc([N+](=O)[O-])s3)sc2C(=O)Nc2ccc(F)cc2F)cc1 [Compound 6-31, N-(2,4-difluorophenyl)-2-(5-nitrothiophene-2-carboxamido)-4-(4-propoxyphenyl)thiazole-5-carboxamide] showed a viability at 10 µM of 61%.
With CN1CCN(C(=O)c2sc(NC(=O)c3ccc([N+](=O)[O-])s3)nc2-c2ccc(C(C)(C)C)cc2)CC1 [Compound 6-43, N-(4-(4-(tert-butyl)phenyl)-5-(4-methylpiperazine-1-carbonyl)thiazol-2-yl)-5-nitrothiophene-2-carboxamide] the viability at 10 µM was 38%.
O=C(Nc1nc(-c2ccccc2[N+](=O)[O-])c(Br)s1)c1ccc([N+](=O)[O-])s1 [Compound 6-12, N-(5-bromo-4-(2-nitrophenyl)thiazol-2-yl)-5-nitrothiophene-2-carboxamide] gave a viability at 10 µM of 67%.
Molecule CC(C)(C)c1ccc(-c2nc(NC(=O)c3ccc([N+](=O)[O-])s3)sc2-c2cccc(Cl)c2)cc1 [Compound 6-56, N-(4-(4-(tert-butyl)phenyl)-5-(3-chlorophenyl)thiazol-2-yl)-5-nitrothiophene-2-carboxamide] has a viability at 10 µM of 28%.
CC(C)(C)c1ccc(-c2nc(NC(=O)c3ccc([N+](=O)[O-])s3)sc2-c2ccccc2Cl)cc1 [Compound 6-55, N-(4-(4-(tert-butyl)phenyl)-5-(2-chlorophenyl)thiazol-2-yl)-5-nitrothiophene-2-carboxamide] showed a viability at 10 µM of 30%.
CC(C)(C)c1ccc(-c2nc(NC(=O)c3ccc([N+](=O)[O-])s3)sc2C(=O)NC2CC2)cc1 [Compound 6-44, 4-(4-(tert-butyl)phenyl)-N-cyclopropyl-2-(5-nitrothiophene-2-carboxamido)thiazole-5-carboxamide] gave a viability at 10 µM of 81%.
Work on O=C(Nc1nc(-c2cccc([N+](=O)[O-])c2)c(Br)s1)c1ccc([N+](=O)[O-])s1 [Compound 6-13, N-(5-bromo-4-(3-nitrophenyl)thiazol-2-yl)-5-nitrothiophene-2-carboxamide] yielded a viability at 10 µM of 81%.
With CCOC(=O)c1sc(NC(=O)c2ccc([N+](=O)[O-])s2)nc1-c1ccc(C(C)(C)C)cc1 [Compound 6-42, ethyl 4-(4-(tert-butyl)phenyl)-2-(5-nitrothiophene-2-carboxamido)thiazole-5-carboxylate] the viability at 10 µM was 49%.
COc1cccc(-c2nc(NC(=O)c3ccc([N+](=O)[O-])s3)sc2Br)c1 [Compound 6-14, N-(5-bromo-4-(3-methoxyphenyl)thiazol-2-yl)-5-nitrothiophene-2-carboxamide] was tested, and the viability at 10 µM was 83%.
